According to ChEMBL document CHEMBL1201862, “PubChem BioAssay data set” (2004):
Activity calls are given as the source filed them.

Assays:
[1] = inhibitors of non-replicating M. tuberculosis, dose response, luciferase, dry powder (AID 651620); format: functional; settings: Mycobacterium tuberculosis
[2] = target: Glycogen synthase kinase-3 alpha (Homo sapiens, UniProt P49840); experiment: Inhibition of Human GSK-3 alpha Activity Measured in Biochemical System Using Microfluidics - 2063-06_Inhibitor_Dose_DryPowder_Activity_Set2. [Related pubchem assays (depositor defined):AID2709]
Chain of Glycogen synthase kinase-3 alpha (P49840 whole entry): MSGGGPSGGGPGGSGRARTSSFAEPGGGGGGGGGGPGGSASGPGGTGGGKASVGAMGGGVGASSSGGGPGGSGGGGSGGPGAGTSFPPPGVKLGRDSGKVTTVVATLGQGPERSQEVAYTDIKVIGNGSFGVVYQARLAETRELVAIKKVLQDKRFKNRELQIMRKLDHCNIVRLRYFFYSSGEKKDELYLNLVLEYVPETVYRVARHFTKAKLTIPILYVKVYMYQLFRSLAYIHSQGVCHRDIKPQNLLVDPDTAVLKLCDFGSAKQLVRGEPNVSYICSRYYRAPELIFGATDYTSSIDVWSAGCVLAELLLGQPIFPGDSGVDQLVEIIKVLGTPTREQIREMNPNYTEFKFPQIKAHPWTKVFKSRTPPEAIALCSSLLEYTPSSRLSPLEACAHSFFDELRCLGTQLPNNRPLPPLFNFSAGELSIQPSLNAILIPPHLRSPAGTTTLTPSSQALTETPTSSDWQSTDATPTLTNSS

[3] = inhibitors of non-replicating M. tuberculosis, dose response, luciferase, dry powder (AID 651619); format: functional; settings: Mycobacterium tuberculosis
[4] = target: Glycogen synthase kinase-3 beta (Homo sapiens, UniProt P49841); experiment: Inhibition of Human GSK-3 beta Activity Measured in Biochemical System Using Microfluidics - 2063-05_Inhibitor_Dose_DryPowder_Activity_Set2. [Related pubchem assays (depositor defined):AID2709]
Chain of Glycogen synthase kinase-3 beta (P49841 whole entry): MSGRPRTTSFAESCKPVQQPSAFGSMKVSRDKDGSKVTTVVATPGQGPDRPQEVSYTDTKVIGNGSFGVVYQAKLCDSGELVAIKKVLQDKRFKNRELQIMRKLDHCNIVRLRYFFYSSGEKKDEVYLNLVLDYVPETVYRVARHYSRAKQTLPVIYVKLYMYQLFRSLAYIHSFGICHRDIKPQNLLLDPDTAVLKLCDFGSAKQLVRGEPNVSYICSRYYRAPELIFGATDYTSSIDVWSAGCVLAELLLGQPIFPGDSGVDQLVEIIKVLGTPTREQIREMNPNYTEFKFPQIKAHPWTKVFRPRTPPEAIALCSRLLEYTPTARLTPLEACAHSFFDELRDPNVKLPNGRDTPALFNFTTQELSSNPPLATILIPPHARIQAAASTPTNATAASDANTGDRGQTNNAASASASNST

[5] = MC4R antagonists, dose response, counter-screen for LGR2 antagonist project, cell-based, plate reader, cherry pick (AID 743444); format: functional;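 note: transfected HEK 293 cells stimulated with alpha-MSH peptide; potency of inhibitors of the alpha-MSH evoked signal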
[6] = target: T1, Streptokinase A (Streptococcus pyogenes serotype M1, UniProt P10520); experiment: S. pyogenes streptokinase expression inhibitors, potency, dose response, plasminogen activation absorbance, OD405 (AID 1914); format: functional, Streptococcus pyogenes M1 GAS;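 note: secreted streptokinase activity via plasminogen activation per viability signal from cell pellet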
T1 sequence (P10520 whole entry): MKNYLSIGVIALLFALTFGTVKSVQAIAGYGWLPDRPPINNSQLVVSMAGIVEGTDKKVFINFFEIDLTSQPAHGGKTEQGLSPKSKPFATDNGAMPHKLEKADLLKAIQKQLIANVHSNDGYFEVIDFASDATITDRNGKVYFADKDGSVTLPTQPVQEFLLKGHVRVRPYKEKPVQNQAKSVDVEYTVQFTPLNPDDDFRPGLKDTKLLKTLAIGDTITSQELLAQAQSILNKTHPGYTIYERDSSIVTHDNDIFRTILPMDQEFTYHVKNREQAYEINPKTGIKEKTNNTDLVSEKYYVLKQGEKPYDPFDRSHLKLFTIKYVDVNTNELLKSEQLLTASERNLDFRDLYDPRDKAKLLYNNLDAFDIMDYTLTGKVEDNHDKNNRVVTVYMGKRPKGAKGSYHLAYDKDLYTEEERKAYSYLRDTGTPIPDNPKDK

[7] = target: T2, Orexin receptor type 2 (Homo sapiens, UniProt O43614); experiment: Counterscreen assay for antagonists of the orexin 1 receptor (OX1R; HCRTR1): Fluorescence-based cell-based dose response assay for antagonists of the orexin 2 receptor (OX2R; HCRTR2), run by assay provider.; format: functional
T2 sequence (O43614 whole entry): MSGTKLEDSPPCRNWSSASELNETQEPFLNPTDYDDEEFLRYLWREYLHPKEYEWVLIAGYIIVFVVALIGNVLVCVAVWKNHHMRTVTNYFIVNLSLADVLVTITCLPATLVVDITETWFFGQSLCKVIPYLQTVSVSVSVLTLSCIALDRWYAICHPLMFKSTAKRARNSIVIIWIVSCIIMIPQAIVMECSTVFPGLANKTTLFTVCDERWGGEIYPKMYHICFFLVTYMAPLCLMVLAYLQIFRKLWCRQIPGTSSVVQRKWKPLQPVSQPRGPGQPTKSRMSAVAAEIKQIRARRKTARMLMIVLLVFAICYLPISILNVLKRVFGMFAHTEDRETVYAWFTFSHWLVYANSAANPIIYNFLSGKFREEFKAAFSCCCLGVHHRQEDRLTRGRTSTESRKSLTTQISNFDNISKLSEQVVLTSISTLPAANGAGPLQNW

[8] = target: T2, Orexin receptor type 2; experiment: Counterscreen assay for antagonists of the orexin 1 receptor (OX1R; HCRTR1): Homogeneous Time Resolved Fluorescence (HTRF)-based cell-based dose response assay for antagonists of the orexin 2 receptor (OX2R; HCRTR2), run by assay provider.; format: functional
[9] = test system: Streptococcus; experiment: Group A Streptococcus viability loss, dose response, counter-screen for streptokinase expression inhibitor project, luminescence, BacTiterGlo (AID 1915); format: functional, organism-based;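 note: potency for reduction of bacterial viability or growth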
[10] = HEK293 cell cytotoxicity, dose response, cytotoxicity control, plate reader, cherry-picked samples (AID 743446); format: functional, cell-based
[11] = target: T3, Orexin/Hypocretin receptor type 1 (Homo sapiens, UniProt O43613); experiment: Homogeneous Time Resolved Fluorescence (HTRF)-based cell-based high throughput dose response assay for antagonists of the orexin 1 receptor (OX1R; HCRTR1). [Related pubchem assays (depositor defined):AID434989, AID435008, AID463079, AID485270, AID492963, AID492964, AID492965, AID493232, AID504717, AID504718]; format: functional
T3 sequence (O43613 whole entry): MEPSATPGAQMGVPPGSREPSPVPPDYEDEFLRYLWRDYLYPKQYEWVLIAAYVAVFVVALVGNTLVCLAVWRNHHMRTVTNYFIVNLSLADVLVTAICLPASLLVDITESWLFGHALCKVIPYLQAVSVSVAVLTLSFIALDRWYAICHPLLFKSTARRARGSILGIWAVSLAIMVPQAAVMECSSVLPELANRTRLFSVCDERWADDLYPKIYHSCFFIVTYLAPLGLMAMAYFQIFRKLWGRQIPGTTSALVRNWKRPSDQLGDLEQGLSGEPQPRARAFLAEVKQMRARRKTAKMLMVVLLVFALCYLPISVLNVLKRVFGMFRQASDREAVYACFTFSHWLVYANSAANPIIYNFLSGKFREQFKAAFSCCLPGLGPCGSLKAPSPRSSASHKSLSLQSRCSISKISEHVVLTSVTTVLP

[12] = target: T4, CAAX prenyl protease 2 (Saccharomyces cerevisiae S288c, UniProt Q03530); format: biochemical
T4 sequence (Q03530 whole entry): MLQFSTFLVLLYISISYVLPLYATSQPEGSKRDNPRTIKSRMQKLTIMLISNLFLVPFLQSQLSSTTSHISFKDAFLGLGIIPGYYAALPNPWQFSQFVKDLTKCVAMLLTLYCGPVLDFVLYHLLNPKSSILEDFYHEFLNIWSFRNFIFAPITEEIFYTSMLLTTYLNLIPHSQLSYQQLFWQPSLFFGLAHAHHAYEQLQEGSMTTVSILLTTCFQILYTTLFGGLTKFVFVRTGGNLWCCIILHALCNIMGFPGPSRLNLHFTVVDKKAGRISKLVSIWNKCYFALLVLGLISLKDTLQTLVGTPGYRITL

[13] = HepG2 cell cytotoxicity, dose response, cytotoxicity control, plate reader, cherry-pick, antagonist series (AID 743416); format: functional, cell-based
[14] = target: T3, Orexin/Hypocretin receptor type 1; experiment: Fluorescence-based cell-based high throughput dose response assay for antagonists of the orexin 1 receptor (OX1R; HCRTR1). [Related pubchem assays (depositor defined):AID434989, AID435008, AID463079, AID485270, AID492963, AID492964, AID492965, AID493232, AID504717, AID504718]; format: functional
[15] = test system: CHO-K1; experiment: (§1) Counterscreen for antagonists of the orexin 1 receptor (OX1R; HCRTR1): Homogeneous time resolved fluorescence (HTRF)-based cell-based dose response assay to identify antagonists of the parental CHO-K1 cell line. [Related pubchem assays (depositor defined):AID434989, AID435008, AID463079, AID485270, AID492963, AID492964, AID492965, AID493232, AID504699, AID504701]; format: functional; settings: Cricetulus griseus
[16] = A549 cell cytotoxicity, dose response, cytotoxicity control, plate reader, cherry-pick, antagonist series (AID 743412); format: functional, cell-based
[17] = as §1, with “Fluorescence-based” for “Homogeneous time resolved fluorescence (HTRF)-based”, “cell-based high throughput” for “cell-based”, “CHO” for “CHO-K1”; format: functional
[18] = test system: Streptococcus sp. 'group A'; experiment: growth inhibition of control SK(-) GAS strain, dose response, counter-screen for streptokinase expression inhibitor project, luminescence, kanamycin, BacTiterGlo, confirmation (AID 1900); format: functional, organism-based
[19] = target: T5, High affinity choline transporter 1 (Homo sapiens, UniProt Q9GZV3); experiment: CHT activators, dose response, cell-based, 10-point CRC, membrane potential dye (AID 602376); format: functional
T5 sequence (Q9GZV3 whole entry): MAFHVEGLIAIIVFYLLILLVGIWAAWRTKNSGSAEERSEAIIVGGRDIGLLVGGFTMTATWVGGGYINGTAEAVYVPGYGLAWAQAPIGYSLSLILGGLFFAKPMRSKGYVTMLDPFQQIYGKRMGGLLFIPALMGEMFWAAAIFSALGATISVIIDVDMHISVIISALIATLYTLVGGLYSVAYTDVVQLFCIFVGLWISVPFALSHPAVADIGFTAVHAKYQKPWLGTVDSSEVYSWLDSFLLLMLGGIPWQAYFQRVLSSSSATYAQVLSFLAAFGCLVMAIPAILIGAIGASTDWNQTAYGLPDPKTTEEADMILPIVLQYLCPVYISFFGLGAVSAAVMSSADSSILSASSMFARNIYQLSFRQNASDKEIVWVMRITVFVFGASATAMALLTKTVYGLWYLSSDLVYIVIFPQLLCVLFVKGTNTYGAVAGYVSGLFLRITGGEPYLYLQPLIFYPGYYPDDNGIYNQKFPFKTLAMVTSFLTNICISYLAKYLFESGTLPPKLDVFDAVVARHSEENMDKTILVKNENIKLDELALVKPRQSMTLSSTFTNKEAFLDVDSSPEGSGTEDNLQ

Fc1ccc(CSc2nnc(-c3ccncc3)o2)cc1
active: IC90 [1] 4 µM | AC50 [2] 3.37 µM | IC90 [3] 4 µM | AC50 [4] 0.578 µM

O=[N+]([O-])c1ccc(-c2c[nH]c(SC(c3ccccc3)c3ccccc3)n2)cc1
> 150 µM (not active): EC50 [9]
active: AC50 [5] 7.88 µM | EC50 [6] 15.2 µM | AC50 [10] 22.2 µM | IC50 [11] 5.72 µM | AC50 [12] 2.05 µM | AC50 [13] 19.1 µM | IC50 [14] 7.34 µM | AC50 [16] 19 µM | EC50 [18] 6.07 µM
inactive: IC50 [7] 29.7 µM | IC50 [8] > 50 µM | IC50 [15] > 66.2 µM | IC50 [17] 32.6 µM

CC(C)c1ccccc1NC(=O)Cn1c(-c2ccccc2Cl)nc2ccccc21
active: EC50 [19] 18.3 µM

O=[N+]([O-])c1cccc(-c2nc(-c3cccs3)c(-c3cccs3)[nH]2)c1
active: IC50 [8] 3.2 µM | IC50 [11] 6.65 µM | IC50 [14] > 5.53 µM
inactive: IC50 [7] 28.8 µM | IC50 [15] > 66.2 µM | IC50 [17] > 49.8 µM
